Like-named read-outs stand apart in the source and are kept apart here.
What was measured:
CDK9/CycT1 = molecular target: T1, CDK9/CycT1 (Homo sapiens, UniProt P50750); experiment: CDK9/CycT1 high ATP kinase assay (TR-FRET, 2 mM ATP); format: biochemical; conditions: 2 mM ATP (high ATP); median; read-out: CDK9/CyclinT1, 2 mM ATP (high ATP), IC50 (median)
T1 construct: Recombinant full-length His-tagged human CDK9 and CycT1; purchased Life Technologies PV4131; host or cells: insect cells
Method in brief: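 Full-length His-tagged human CDK9/CycT1 (insect cell, ~0.5 μg/mL) preincubated 15 min at 22 °C with compound in Tris pH 8.0, MgCl2, DTT buffer before reaction with biotinylated peptide substrate at high ATP (2 mM).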

[1] = molecular target: T2, CDK12 (nuclear staining in CAL-120 cells) (Homo sapiens, UniProt Q9NYV4); experiment: CDK12 nuclear protein level: immunofluorescence/high content analysis (CAL-120); format: cell-based; conditions: for DC50: CAL-120 cells, 24 h, immunofluorescence, 50% reduction of nuclear CDK12 staining intensity, median, read-out: CDK12 degradation IF, DC50- [mol/l] (median); for (IC50 CDK12 high ATP) to (Degradation DC50 CDK12) ratio: ratio of IC50 CDK12 high ATP kinase assay to DC50 CDK12 degradation (IF, CAL-120)
T2 construct: endogenous in cells; host or cells: CAL-120 human breast cancer cells (DSMZ ACC 459)
Method in brief: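 CAL-120 cells were treated with compound for 24 h at 37 °C, fixed with PFA and immunostained for CDK12. Nuclear CDK12 intensity was quantified by automated image analysis and normalized to DMSO and control. DC50 is the concentration giving 50% reduction of nuclear staining.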

[2] = molecular target: T3, CYCLIN K (nuclear staining in CAL-120 cells) (Homo sapiens, UniProt O75909); experiment: CYCLIN K nuclear protein level: immunofluorescence high content analysis (CAL-120); format: cell-based; conditions: 24 h, 50% reduction of nuclear CCNK staining intensity, median, read-out: CYCLIN K degradation IF, DC50-[mol/l] (median)
T3 construct: endogenous in cells; host or cells: CAL-120 human breast cancer cells (DSMZ ACC 459)
Method in brief: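 CAL-120 breast cancer cells treated in dose-response for 24 h at 37 °C, PFA-fixed and immunostained for cyclin K with Hoechst counterstain. Confocal imaging quantified nuclear intensity; DC50 is the concentration giving 50% reduction of nuclear CCNK staining, normalized to DMSO and control.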

[3] = test system: CAL-120, human breast adenocarcinoma cells; experiment: Proliferation assay CAL-120 (crystal violet, 4 days); format: cell-based; conditions: CAL-120 cells, median, read-out: Prolif-CAL-120, IC50-[mol/l] (median)
Method in brief: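 Cells seeded at 4,000/well in medium with 10% FCS; after 24 h, compounds added at 0.01-10 µmol/L (0.1% DMSO) for 4 days. Glutaraldehyde-fixed, crystal violet-stained, absorbance at 595 nm normalized to zero-point plate (0%) and untreated cells (100%); IC50 by 4-parameter fit.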

T3 sequence (O75909 whole entry): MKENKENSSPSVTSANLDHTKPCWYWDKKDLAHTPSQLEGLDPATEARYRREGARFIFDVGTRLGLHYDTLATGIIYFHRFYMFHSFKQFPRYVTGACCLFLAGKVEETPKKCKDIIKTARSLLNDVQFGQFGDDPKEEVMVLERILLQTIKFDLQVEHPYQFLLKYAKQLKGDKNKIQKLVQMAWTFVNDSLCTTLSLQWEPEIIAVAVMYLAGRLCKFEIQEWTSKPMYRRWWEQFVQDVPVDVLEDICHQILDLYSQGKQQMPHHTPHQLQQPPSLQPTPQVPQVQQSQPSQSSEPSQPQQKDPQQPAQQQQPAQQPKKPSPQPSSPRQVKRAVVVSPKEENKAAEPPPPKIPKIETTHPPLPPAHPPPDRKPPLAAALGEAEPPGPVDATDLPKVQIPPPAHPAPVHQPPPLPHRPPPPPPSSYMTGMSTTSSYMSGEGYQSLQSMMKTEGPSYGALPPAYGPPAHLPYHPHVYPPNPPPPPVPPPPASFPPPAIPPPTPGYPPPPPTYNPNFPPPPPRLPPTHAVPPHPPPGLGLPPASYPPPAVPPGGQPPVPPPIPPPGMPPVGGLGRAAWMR
T3 sequence (Q9NYV4 whole entry partner): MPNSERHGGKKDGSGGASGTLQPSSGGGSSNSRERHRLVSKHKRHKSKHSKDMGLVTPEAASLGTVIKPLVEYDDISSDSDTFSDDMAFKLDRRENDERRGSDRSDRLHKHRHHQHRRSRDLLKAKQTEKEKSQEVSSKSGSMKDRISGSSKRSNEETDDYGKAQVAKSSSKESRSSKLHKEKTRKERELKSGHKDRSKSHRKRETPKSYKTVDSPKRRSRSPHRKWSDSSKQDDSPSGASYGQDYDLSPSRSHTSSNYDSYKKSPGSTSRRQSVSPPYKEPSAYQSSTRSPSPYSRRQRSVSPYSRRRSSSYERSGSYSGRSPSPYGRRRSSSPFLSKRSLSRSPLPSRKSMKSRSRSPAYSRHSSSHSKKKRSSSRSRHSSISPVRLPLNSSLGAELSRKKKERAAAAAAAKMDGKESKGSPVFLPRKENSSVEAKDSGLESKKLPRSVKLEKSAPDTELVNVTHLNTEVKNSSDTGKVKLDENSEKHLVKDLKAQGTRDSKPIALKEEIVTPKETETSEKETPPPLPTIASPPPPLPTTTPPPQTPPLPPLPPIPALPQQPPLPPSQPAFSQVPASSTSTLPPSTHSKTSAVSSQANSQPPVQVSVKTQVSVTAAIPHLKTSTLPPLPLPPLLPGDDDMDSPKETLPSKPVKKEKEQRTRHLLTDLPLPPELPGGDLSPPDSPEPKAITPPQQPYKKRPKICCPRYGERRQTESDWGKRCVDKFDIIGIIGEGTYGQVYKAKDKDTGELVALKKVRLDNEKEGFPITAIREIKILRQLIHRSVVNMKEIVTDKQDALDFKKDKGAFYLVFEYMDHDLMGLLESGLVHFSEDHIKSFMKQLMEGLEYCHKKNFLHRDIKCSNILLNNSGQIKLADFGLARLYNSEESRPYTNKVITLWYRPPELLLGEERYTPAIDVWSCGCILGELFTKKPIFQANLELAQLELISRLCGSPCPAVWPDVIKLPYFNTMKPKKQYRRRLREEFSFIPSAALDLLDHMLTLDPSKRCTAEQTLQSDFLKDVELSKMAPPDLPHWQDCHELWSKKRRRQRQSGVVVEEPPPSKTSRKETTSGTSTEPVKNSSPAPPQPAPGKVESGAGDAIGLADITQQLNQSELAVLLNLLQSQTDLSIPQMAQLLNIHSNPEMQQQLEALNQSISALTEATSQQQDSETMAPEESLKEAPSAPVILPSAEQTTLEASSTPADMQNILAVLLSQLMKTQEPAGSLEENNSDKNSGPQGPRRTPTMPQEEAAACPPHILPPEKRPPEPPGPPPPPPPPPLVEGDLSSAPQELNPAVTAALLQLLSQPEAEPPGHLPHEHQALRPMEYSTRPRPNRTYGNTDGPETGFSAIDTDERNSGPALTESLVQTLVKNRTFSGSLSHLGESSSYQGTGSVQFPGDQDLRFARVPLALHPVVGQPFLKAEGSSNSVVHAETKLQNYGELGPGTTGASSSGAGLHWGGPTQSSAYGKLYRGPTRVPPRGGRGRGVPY
T1 sequence (P50750 whole entry): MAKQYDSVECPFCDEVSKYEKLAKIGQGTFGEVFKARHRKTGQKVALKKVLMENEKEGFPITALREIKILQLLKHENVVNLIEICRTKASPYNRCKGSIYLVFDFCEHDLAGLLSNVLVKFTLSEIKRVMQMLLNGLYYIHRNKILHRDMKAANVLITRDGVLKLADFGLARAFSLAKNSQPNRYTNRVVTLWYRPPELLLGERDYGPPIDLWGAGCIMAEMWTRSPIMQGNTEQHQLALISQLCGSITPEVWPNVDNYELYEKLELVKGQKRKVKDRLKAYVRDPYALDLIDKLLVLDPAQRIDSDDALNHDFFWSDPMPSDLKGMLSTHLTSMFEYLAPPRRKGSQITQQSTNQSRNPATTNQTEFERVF
T1 sequence (O60563 whole entry partner): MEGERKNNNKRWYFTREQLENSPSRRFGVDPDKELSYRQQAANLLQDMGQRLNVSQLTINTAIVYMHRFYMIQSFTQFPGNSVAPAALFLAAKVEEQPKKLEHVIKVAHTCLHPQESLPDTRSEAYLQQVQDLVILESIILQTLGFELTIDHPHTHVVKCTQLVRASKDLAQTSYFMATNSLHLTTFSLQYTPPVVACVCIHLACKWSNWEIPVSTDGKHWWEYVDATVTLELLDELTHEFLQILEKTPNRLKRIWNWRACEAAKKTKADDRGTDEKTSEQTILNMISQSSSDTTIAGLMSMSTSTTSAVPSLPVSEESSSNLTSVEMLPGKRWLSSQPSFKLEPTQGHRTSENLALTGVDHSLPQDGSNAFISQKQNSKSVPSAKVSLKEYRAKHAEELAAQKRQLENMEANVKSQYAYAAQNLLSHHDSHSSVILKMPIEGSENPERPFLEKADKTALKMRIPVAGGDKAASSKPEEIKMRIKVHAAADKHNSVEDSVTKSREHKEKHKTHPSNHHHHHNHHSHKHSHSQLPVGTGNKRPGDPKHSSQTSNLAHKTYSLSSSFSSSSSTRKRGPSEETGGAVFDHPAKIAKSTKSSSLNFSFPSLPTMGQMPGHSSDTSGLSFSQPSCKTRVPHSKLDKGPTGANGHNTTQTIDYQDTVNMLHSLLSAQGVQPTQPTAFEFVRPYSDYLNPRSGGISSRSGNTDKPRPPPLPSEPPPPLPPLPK
T2 sequence (Q9NYV4 whole entry): as the sequence (Q9NYV4 whole entry partner) above
T2 sequence (O75909 whole entry partner): as the sequence (O75909 whole entry) above

CC1CN(C)CCN1c1nc(NCc2nc3ccccc3[nH]2)n2ncc(Br)c2n1 (single isomer, unassigned; enantiomer 2) [Example 261, N-(1H-benzimidazol-2-ylmethyl)-8-bromo-2-[(2R or S)-2,4-dimethylpiperazin-1-yl]pyrazolo[1,5-a][1,3,5]triazin-4-amine (Enantiomer 2)]
IC50 (CDK9/CycT1): > 20000 nM
DC50 [1]: 19.9 nM
(IC50 CDK12 high ATP) to (Degradation DC50 CDK12) ratio [1]: >942
DC50 [2]: 1.23 nM
IC50 [3]: 38.9 nM

Fc1cccc2[nH]c(CNc3nc(N4CCOCC4)nc4c(CC(F)(F)F)cnn34)nc12 [Example 303, N-[(4-fluoro-1H-benzimidazol-2-yl)methyl]-2-(morpholin-4-yl)-8-(2,2,2-trifluoroethyl)pyrazolo[1,5-a][1,3,5]triazin-4-amine]
IC50 (CDK9/CycT1): > 20000 nM
DC50 [1]: 11 nM
(IC50 CDK12 high ATP) to (Degradation DC50 CDK12) ratio [1]: 155
DC50 [2]: 0.546 nM
IC50 ([3]; Homo sapiens, CAL-120, 96 h): 7.9 nM

CN(CC(C)(C)O)c1nc(NCc2nc3cc(Cl)c(Cl)cc3[nH]2)n2ncc(C3CC3)c2n1 [Example 306, 1-[(8-cyclopropyl-4-{[(5,6-dichloro-1H-benzimidazol-2-yl)methyl]amino}pyrazolo[1,5-a][1,3,5]triazin-2-yl)(methyl)amino]-2-methylpropan-2-ol]
IC50 (CDK9/CycT1): > 20000 nM
DC50 [1]: 12.7 nM
(IC50 CDK12 high ATP) to (Degradation DC50 CDK12) ratio [1]: 146
DC50 [2]: 0.642 nM
IC50 ([3]; Homo sapiens, CAL-120, 96 h): 7.21 nM

c1ccc2[nH]c(CNc3nc(N4CCNCC4)nc4c(C5CC5)cnn34)nc2c1 [Example 247, N-[(1H-benzimidazol-2-yl)methyl]-8-cyclopropyl-2-(piperazin-1-yl)pyrazolo[1,5-a][1,3,5]triazin-4-amine]
IC50 (CDK9/CycT1): > 20000 nM
DC50 [1]: 1.38 nM
(IC50 CDK12 high ATP) to (Degradation DC50 CDK12) ratio [1]: 10678
DC50 [2]: 0.933 nM
IC50 ([3]; Homo sapiens, CAL-120, 96 h): 9.79 nM

CN1CCN(c2nc(NCc3nc4c(F)cccc4[nH]3)n3ncc(C(F)(F)F)c3n2)CC1 [Example 293, N-[(4-fluoro-1H-benzimidazol-2-yl)methyl]-2-(4-methylpiperazin-1-yl)-8-(trifluoromethyl)pyrazolo[1,5-a][1,3,5]triazin-4-amine]
IC50 (CDK9/CycT1): > 20000 nM
DC50 [1]: 1.71 nM
(IC50 CDK12 high ATP) to (Degradation DC50 CDK12) ratio [1]: 3446
DC50 [2]: 0.385 nM
IC50 ([3]; Homo sapiens, CAL-120, 96 h): 8.88 nM

Cc1cc2nc(CNc3nc(N4CCN(C)CC4)nc4c(C5CC5)cnn34)[nH]c2cc1C [Example 312, 8-cyclopropyl-N-[(5,6-dimethyl-1H-benzimidazol-2-yl)methyl]-2-(4-methylpiperazin-1-yl)pyrazolo[1,5-a][1,3,5]triazin-4-amine]
IC50 (CDK9/CycT1): > 20000 nM
DC50 [1]: 3.9 nM
(IC50 CDK12 high ATP) to (Degradation DC50 CDK12) ratio [1]: 2616
DC50 [2]: 0.518 nM
IC50 ([3]; Homo sapiens, CAL-120, 96 h): 2.32 nM

C[C@@H]1CN(c2nc(NCc3nc4ccccc4[nH]3)n3ncc(C4CC4)c3n2)C[C@H](C)N1 [Example 248, N-[(1H-benzimidazol-2-yl)methyl]-8-cyclopropyl-2-[(3R,5S)-3,5-dimethylpiperazin-1-yl]pyrazolo[1,5-a][1,3,5]triazin-4-amine]
IC50 (CDK9/CycT1): > 20000 nM
DC50 [1]: 0.946 nM
(IC50 CDK12 high ATP) to (Degradation DC50 CDK12) ratio [1]: 9730
DC50 [2]: 0.648 nM
IC50 ([3]; Homo sapiens, CAL-120, 96 h): 3.13 nM

Fc1ccc2[nH]c(CNc3nc(N4CCOCC4)nc4c(CC(F)(F)F)cnn34)nc2c1F [Example 268, N-[(4,5-difluoro-1H-benzimidazol-2-yl)methyl]-2-(morpholin-4-yl)-8-(2,2,2-trifluoroethyl)pyrazolo[1,5-a][1,3,5]triazin-4-amine]
IC50 (CDK9/CycT1): > 20000 nM
DC50 [1]: 1.9 nM
(IC50 CDK12 high ATP) to (Degradation DC50 CDK12) ratio [1]: 1120
DC50 [2]: 0.756 nM
IC50 ([3]; Homo sapiens, CAL-120, 96 h): 5.59 nM

Fc1ccc2[nH]c(CNc3nc(N4CCOCC4)nc4c(CC(F)(F)F)cnn34)nc2c1 [Example 308, N-[(5-fluoro-1H-benzimidazol-2-yl)methyl]-2-(morpholin-4-yl)-8-(2,2,2-trifluoroethyl)pyrazolo[1,5-a][1,3,5]triazin-4-amine]
IC50 (CDK9/CycT1): > 20000 nM
DC50 [1]: 4.93 nM
(IC50 CDK12 high ATP) to (Degradation DC50 CDK12) ratio [1]: 1297
DC50 [2]: 1.02 nM
IC50 ([3]; Homo sapiens, CAL-120, 96 h): 10.2 nM

CN(CC(C)(C)O)c1nc(NCc2nc3c(F)cccc3[nH]2)n2ncc(C3CC3)c2n1 [Example 295, 1-[(8-cyclopropyl-4-{[(4-fluoro-1H-benzimidazol-2-yl)methyl]amino}pyrazolo[1,5-a][1,3,5]triazin-2-yl)(methyl)amino]-2-methylpropan-2-ol]
IC50 (CDK9/CycT1): 9270 nM
DC50 [1]: 3.52 nM
(IC50 CDK12 high ATP) to (Degradation DC50 CDK12) ratio [1]: 235
DC50 [2]: 2.55 nM
IC50 ([3]; Homo sapiens, CAL-120, 96 h): 7.25 nM

N[C@H]1[C@@H]2C[C@H]1CN(c1nc(NCc3nc4ccccc4[nH]3)n3ncc(Br)c3n1)C2 [Example 288, 2-[(1R,5S,6r)-6-amino-3-azabicyclo[3.1.1]heptan-3-yl]-N-[(1H-benzimidazol-2-yl)methyl]-8-bromopyrazolo[1,5-a][1,3,5]triazin-4-amine]
IC50 (CDK9/CycT1): > 20000 nM
DC50 [1]: 1.16 nM
(IC50 CDK12 high ATP) to (Degradation DC50 CDK12) ratio [1]: 2920
DC50 [2]: 0.418 nM
IC50 ([3]; Homo sapiens, CAL-120, 96 h): 1.8 nM

c1ccc2[nH]c(CNc3nc(N4C[C@@H]5C[C@H]4CO5)nc4c(C5CC5)cnn34)nc2c1 [Example 254, N-[(1H-benzimidazol-2-yl)methyl]-8-cyclopropyl-2-[(1S,4S)-2-oxa-5-azabicyclo[2.2.1]heptan-5-yl]pyrazolo[1,5-a][1,3,5]triazin-4-amine]
IC50 (CDK9/CycT1): > 20000 nM
DC50 [1]: 8.47 nM
(IC50 CDK12 high ATP) to (Degradation DC50 CDK12) ratio [1]: >2361
DC50 [2]: 4.17 nM
IC50 ([3]; Homo sapiens, CAL-120, 96 h): 87.7 nM

CN1CCN(c2nc(NCc3nc4ccccc4[nH]3)n3ncc(C4CC4)c3n2)CC1 [Example 246, N-[(1H-benzimidazol-2-yl)methyl]-8-cyclopropyl-2-(4-methylpiperazin-1-yl)pyrazolo[1,5-a][1,3,5]triazin-4-amine]
IC50 (CDK9/CycT1): > 20000 nM
DC50 [1]: 3 nM
(IC50 CDK12 high ATP) to (Degradation DC50 CDK12) ratio [1]: >4287
DC50 [2]: 1.02 nM
IC50 ([3]; Homo sapiens, CAL-120, 96 h): 12.1 nM

Fc1ccc2[nH]c(CNc3nc(N4CCOCC4)nc4c(Br)cnn34)nc2c1F [Example 25, 8-bromo-N-[(4,5-difluoro-1H-benzimidazol-2-yl)methyl]-2-(morpholin-4-yl)pyrazolo[1,5-a][1,3,5]triazin-4-amine]
IC50 (CDK9/CycT1): 5780 nM
DC50 [1]: 0.674 nM
(IC50 CDK12 high ATP) to (Degradation DC50 CDK12) ratio [1]: 1084
DC50 [2]: 0.263 nM
IC50 ([3]; Homo sapiens, CAL-120, 96 h): 2.62 nM

C[C@@]1(O)CCN(c2nc(NCc3nc4ccccc4[nH]3)n3ncc(Br)c3n2)C1 (single isomer, unassigned) [Example 281, (3R or S)-1-(4-{[(1H-benzimidazol-2-yl)methyl]amino}-8-bromopyrazolo[1,5-a][1,3,5]triazin-2-yl)-3-methylpyrrolidin-3-ol]
IC50 (CDK9/CycT1): > 20000 nM
DC50 [1]: 40.3 nM
(IC50 CDK12 high ATP) to (Degradation DC50 CDK12) ratio [1]: >419
DC50 [2]: 20.8 nM
IC50 ([3]; Homo sapiens, CAL-120, 96 h): 85.4 nM

FC1(F)CC1c1cnn2c(NCc3nc4ccccc4[nH]3)nc(N3CCOCC3)nc12 (centres unmarked) [Example 279, N-[(1H-benzimidazol-2-yl)methyl]-8-(2,2-difluorocyclopropyl)-2-(morpholin-4-yl)pyrazolo[1,5-a][1,3,5]triazin-4-amine]
IC50 (CDK9/CycT1): > 20000 nM
DC50 [1]: 4.72 nM
(IC50 CDK12 high ATP) to (Degradation DC50 CDK12) ratio [1]: 2961
DC50 [2]: 3.78 nM
IC50 ([3]; Homo sapiens, CAL-120, 96 h): 17.2 nM

Reference: patent publication US20230117034A1, “PYRAZOLOTRIAZINES” (Bayer Aktiengesellschaft, priority 2019, published 2023)
